Drawing on patent US7122526B2, “Indolocarbazole anticancer agents and methods of using same” (Nanosphere, Inc., priority 2000, dated 2006), this text covers IC50 for ten compounds.

Assay [1] concerns the target T1, Human Topoisomerase I (Homo sapiens, UniProt P11387).
T1 sequence (P11387 1-765): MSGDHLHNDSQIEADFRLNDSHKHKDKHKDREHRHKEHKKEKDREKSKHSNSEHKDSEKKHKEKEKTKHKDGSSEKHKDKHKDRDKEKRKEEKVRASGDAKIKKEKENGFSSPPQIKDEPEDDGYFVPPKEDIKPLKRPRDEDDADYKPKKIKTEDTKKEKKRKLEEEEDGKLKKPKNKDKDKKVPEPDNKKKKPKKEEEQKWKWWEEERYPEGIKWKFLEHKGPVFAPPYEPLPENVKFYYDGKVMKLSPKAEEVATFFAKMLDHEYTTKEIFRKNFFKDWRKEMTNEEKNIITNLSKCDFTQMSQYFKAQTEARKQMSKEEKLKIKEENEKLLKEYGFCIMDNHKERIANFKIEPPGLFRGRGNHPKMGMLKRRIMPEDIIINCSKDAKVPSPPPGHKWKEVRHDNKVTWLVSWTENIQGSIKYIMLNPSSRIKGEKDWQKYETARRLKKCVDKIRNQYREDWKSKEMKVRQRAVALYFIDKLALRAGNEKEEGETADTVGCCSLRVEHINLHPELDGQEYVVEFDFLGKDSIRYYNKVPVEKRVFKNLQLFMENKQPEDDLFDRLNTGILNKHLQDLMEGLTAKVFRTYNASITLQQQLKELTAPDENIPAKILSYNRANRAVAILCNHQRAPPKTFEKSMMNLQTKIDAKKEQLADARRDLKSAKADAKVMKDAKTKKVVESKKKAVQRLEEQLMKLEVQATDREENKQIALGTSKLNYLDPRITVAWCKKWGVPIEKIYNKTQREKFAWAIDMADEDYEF
The assay can be described thus: Topoisomerase I assay (pHOT1 supercoiled DNA, agarose gel). It counts as biochemical. To be noted: supercoiled DNA band density, 37° C., 30 minutes; read-out: Poisoning of Human Topoisomerase I IC50. How it is done: a.) Topoisomerase I assay. Reaction buffer (10.3 μL H2O, 2.0 μL 10×buffer, 1.5 μL […] MgCl2, and 3.2 μL 500 mM KCl) was prepared and kept on ice. 10×Buffer was prepared by mixing 2 mL 2M Tris pH 7.5, 15.3 μL 10% DTT, 100 μL 0.5 M EDTA, 75 μL 20 mg/mL BSA, and […]. Test poisons were prepared in DMSO at such concentrations that the final incubation mixture was 5% DMSO. DNA mix was prepared by dissolving […] of pHOT1 DNA solution (0.25 μg/μL) with 715 μL reaction buffer. Topo I mix was prepared by mixing 14 μL of Topo I solution (2 units/μL) with 266 μL of reaction buffer. Proteinase K solution was prepared fresh as 10 mg/mL in 1% SDS. Gel loading buffer was prepared by dissolving 1 mg bromophenol blue in 100 μL H2O, then adding 900 μL 50% glycerol.
The assay was conducted as follows. DNA mix (14 μL) was added to sample tubes containing 1 μL of test poison solution and stored on ice. Next, 5 μL of Topo I mix was added, the solution was mixed with the pipettor, then incubated with gentle rocking in a 37° C. water bath for 30 minutes. The reactions were stopped via addition of 2 μL of proteinase K solution, and incubation was continued for another 30 minutes, then placed on ice. 2.2 μL of 5 M NaCl and 75 μL of EtOH were added to the tubes, the tubes were vortexed briefly, then placed on dry ice for 1 hour. The DNA was pelleted by centrifugation at 16,000×g for 10 minutes at 4° C. EtOH was removed from each tube using a gel loading pipette tip, and the DNA pellet was resuspended in 18 μL of reaction buffer and 2 μL of gel loading buffer. The samples were vortexed briefly, then spun for 15 seconds in a micro-centrifuge to force all the liquid to the bottom of the tubes. The samples were loaded onto a 1% agarose gel made with 1×TBE containing 2 μg/mL chloroquine. The gels were run at 35 V for 15 hours in 1×TBE. Gels were stained with 0.5 μg/mL ethidium bromide in 1×TBE for 1 hour, then destained for 30 minutes in H2O. Gels were photographed with a digital camera, and the digitized images analyzed using NIH software. IC50 values were determined by comparing supercoiled DNA band density (negative controls containing 5 μL reaction buffer in place of Topo I mix) with the supercoiled DNA bands remaining in the test samples.

For assay [2], the system named is OVCAR-3 Ovarian. The assay is described as follows: In vitro cytotoxicity assay (MTS), OVCAR-3. It counts as cell-based. Particulars: OVCAR-3 human ovarian tumor cell line, MTS assay 3–5 days; read-out: Growth-Inhibitory Activity IC50 OVCAR-3 Ovarian. How it is done: (§1) b.) In vitro Cytotoxicity Assay. 96-Well tissue culture cluster plates were seeded with 100 μL of cell suspension (5×10^3 cells/mL), and incubated overnight for cell anchorage and acclimation. Cells were propagated under sterile conditions in RPMI 1640 or DMEM with 10% fetal bovine serum, 2 mM L-glutamine, and sodium bicarbonate (complete medium), and incubated at 37° C. The test compounds were prepared in DMSO and then diluted in complete media. A range of eight concentrations was used for each test drug to establish cytotoxicity, with eight replicates for each concentration. All dosing was conducted using a Biomek 2000 robotic liquid handler. The plates were incubated at 37° C. with 5% CO2 and 95% relative humidity. The data were analyzed for cytotoxicity using the MTS assay 3–5 days (depending upon the growth rate of the cell lines) after commencement of treatment.
(§2) c.) MTS Assay. A solution of 40 μL of MTS/PES solution (purchased from Promega Corporation) was added to each well, and incubated for one to four hours. The absorbance of formazan in each monolayer was measured at 490 nm on a Coulter microplate reader. The data were processed in a spreadsheet program to provide a dose-response curve, allowing determination of the IC50.

For assay [3], the system named is DU-145 Prostate. The assay can be described thus: In vitro cytotoxicity assay (MTS), DU-145. To be noted: DU-145 human prostate tumor cell line, MTS assay 3–5 days; read-out: Growth-Inhibitory Activity IC50 DU-145 Prostate. It counts as cell-based. How it is done: as §1, §2
In assay [4] the test system is HT-29 Colon. The assay can be described thus: In vitro cytotoxicity assay (MTS), HT-29. It counts as cell-based. Particulars: HT-29 human colon tumor cell line, MTS assay 3–5 days; read-out: Growth-Inhibitory Activity IC50 HT-29 Colon. How it is done:
as §1, §2

For `O=C1NC(=O)c2c1c1c3cc(O)ccc3[nH]c1c1c2c2cc(O)ccc2n1[C@@H]1O[C@H](CO)[C@@H](O)[C@H](O)[C@H]1O` [ALS-007, 3,9-dihydroxy-12-(β-D-glucopyranosyl)-6,7,12,13-tetrahydroindolo[2,3-a]pyrrolo[3,4-c]carbazole-5,7-dione, reference compound], the IC50 in assay [1] is 20.9 µM; in assay [2], < 0.01 µM; in assay [3] it was 0.338 µM; in assay [4], 9.96 µM.
For the compound `O=C1NC(=O)c2c1c1c3cc(O)ccc3[nH]c1c1c2c2cc3c(cc2n1[C@@H]1O[C@H](CO)[C@@H](O)[C@H](O)[C@H]1O)OCCO3` [IIa, 2,3-ethylenedioxy-9-hydroxy-13-(β-D-glucopyranosyl)-6,7,12,13-tetrahydroindolo[2,3-a]pyrrolo[3,4-c]carbazole-5,7-dione], the IC50 in assay [1] is > 400 µM.
Still for that read-out and setting: under `O=C1NC(=O)c2c1c1c3cc(O)ccc3[nH]c1c1c2c2cc3c(cc2n1[C@@H]1O[C@H](CO)[C@@H](O)[C@H](O)[C@H]1O)OCO3` [IIb, 2,3-methylenedioxy-9-hydroxy-13-(β-D-glucopyranosyl)-6,7,12,13-tetrahydroindolo[2,3-a]pyrrolo[3,4-c]carbazole-5,7-dione] stands > 400 µM.
For `O=C1NC(=O)c2c1c1c3cc4c(cc3[nH]c1c1c2c2cc(O)ccc2n1[C@@H]1O[C@H](CO)[C@@H](O)[C@H](O)[C@H]1O)OCCO4` [Ia, 2,3-ethylenedioxy-9-hydroxy-12-(β-D-glucopyranosyl)-6,7,12,13-tetrahydroindolo[2,3-a]pyrrolo[3,4-c]carbazole-5,7-dione], the IC50 in assay [1] is 5.4 µM; in assay [2] it was < 0.01 µM; in assay [3], 0.845 µM; in assay [4] it was > 10 µM.
On the same counts, the results for `O=C1NC(=O)c2c1c1c3cc4c(cc3[nH]c1c1c2c2cc(O)ccc2n1[C@@H]1O[C@H](CO)[C@@H](O)[C@H](O)[C@H]1O)OCO4` [Ib, 2,3-methylenedioxy-9-hydroxy-12-(β-D-glucopyranosyl)-6,7,12,13-tetrahydroindolo[2,3-a]pyrrolo[3,4-c]carbazole-5,7-dione] are 3.6 µM, < 0.01 µM, 0.46 µM and > 10 µM.
On the same counts, the results for `CC1(C)Oc2cc3[nH]c4c(c5c(c6c7cc(O)ccc7n(C7OC(CO)C(O)C(O)C7O)c46)C(=O)NC5=O)c3cc2O1` [Ic, 2,3-isopropylenedioxy-9-hydroxy-12-(β-D-glucopyranosyl)-6,7,12,13-tetrahydroindolo[2,3-a]pyrrolo[3,4-c]carbazole-5,7-dione] are 8.1 µM, 0.036 µM, 2.36 µM and > 10 µM.
For `CC[C@@]1(O)C(=O)OCc2c1cc1n(c2=O)Cc2cc3c(CN(C)C)c(O)ccc3nc2-1` [Topotecan, reference compound], the values for the IC50 in assay [2], in assay [3] and in assay [4] were < 0.003 µM, 0.03 µM and 0.533 µM, respectively.
In the case of `O=C1c2c(c3c4cc(O)ccc4n(C4OC(CO)C(O)C(O)C4O)c3c3[nH]c4cc5c(cc4c23)OCCO5)C(=O)N1CO` [compound 9, 2,3-ethylenedioxy-6-hydroxymethyl-9-hydroxy-12-(β-D-glucopyranosyl)-6,7,12,13-tetrahydroindolo[2,3-a]pyrrolo[3,4c]carbazole-5,7-dione], the IC50 was 3.9 µM in assay [1], < 0.01 µM in assay [2], 0.718 µM in assay [3] and > 10 µM in assay [4].
For `O=C1c2c(c3c4cc(O)ccc4n([C@@H]4O[C@H](CO)[C@@H](O)[C@H](O)[C@H]4O)c3c3[nH]c4cc5c(cc4c23)OCO5)C(=O)N1CO` [compound 16, 2,3-methylenedioxy-6-hydroxymethyl-9-hydroxy-12-(β-D-glucopyranosyl)-6,7,12,13-tetrahydroindolo[2,3-a]pyrrolo[3,4-c]carbazole-5,7-dione], the concentration for half-maximal inhibition (IC50) is 3.6 µM in assay [1], < 0.01 µM in assay [2], 0.549 µM in assay [3] and > 10 µM in assay [4].
On the same counts, the results for `CC1(C)Oc2cc3[nH]c4c(c5c(c6c7cc(O)ccc7n(C7OC(CO)C(O)C(O)C7O)c46)C(=O)N(CO)C5=O)c3cc2O1` [compound 23, 2,3-isopropylenedioxy-6-hydroxymethyl-9-hydroxy-12-(β-D-glucopyranosyl)-6,7,12,13-tetrahydroindolo[2,3-a]pyrrolo[3,4-c]carbazole-5,7-dione] are 130 µM, 0.043 µM, 3.52 µM and > 10 µM.
